Here are results for two molecules from patent publication US9868954B2, “Reduction of TGFβ signaling in myeloid cells in the treatment of cancer” (The United States of America, as represented by the …, priority 2011, dated 2018).

The structures appear in SMILES notation.

In the experiment the test system is Gr-1+CD11b+ myeloid cells from Tgfbr2^myeKO. Briefly: Expression of IL-10, IL-4 and PF4 (Western blotting, quantitative PCR) in sorted Gr-1+CD11b+ myeloid cells cultured with pathway inhibitors. To be noted: myeloid cells lacking Tgfbr2, cultured 6 hours with inhibitor; mRNA level and protein level. It is filed as cell-based, mice. Here is the method: Gr-1+CD11b+ myeloid cells were sorted with MACS from Tgfbr2^myeKO and cultured for 6 hours with an inhibitor of GSK3 (SB216763, Sigma) or PI3K (LY294002, Calbiochem) at different doses (2, 5, and 10 μM for the GSK3 inhibitor; 5, 10, and 20 μM for the PI3K inhibitor). SB216763 is a potent and selective ATP-competitive inhibitor of the serine/threonine protein kinas GSK α and β. […] GSK3 Western blotting was performed to detect inhibiting activity. The expression of IL-10, IL-4, and PF4 was examined using Western blotting and quantitative PCR.

As to `Cc1ccc2nc(NCCN)c3ncc(C)n3c2c1` [BMS-345541], the “expression of IL-10, IL-4, and PF4” value is “did not show a significant effect”.
As for `Cn1cc(C2=C(c3ccc(Cl)cc3Cl)C(=O)NC2=O)c2ccccc21` [SB216763], the entry is “reversed the down-regulation of IL-10, IL-4, and PF4”.
